Data set [1] addresses T1, human α3β4 nAChR (Homo sapiens, UniProt P30926+P32297).
T1 construct: expressed in transfected cells; host or cells: Xenopus laevis oocytes, mRNA injection, 0.33 ng α3 and 3.33 ng β4
The experiment in a line: Two-electrode voltage-clamp recordings, Xenopus laevis oocytes expressing human α3β4 nAChR. The class given is cell-based. In general terms: In two-electrode clamp one electrode senses voltage and the other passes current.

Data set [2] has as its system nAChRs on LUHMES neurons. Also on record: method as in Loser et al. [2021a]. The conditions noted are these: ref Loser et al. [2021a]; cited from earlier work.
Data set [3] has as its target T2, human α4β2 (HS) nAChR (Homo sapiens, UniProt P17787+P43681).
T2 construct: expressed in transfected cells; host or cells: Xenopus laevis oocytes (EcoCyte Bioscience), mRNA injection, 3 ng α4 and 30 ng β2
Briefly: Two-electrode voltage-clamp recordings, Xenopus laevis oocytes expressing human α4β2 (HS) nAChR. The class given is cell-based.

Data set [4] has as its target T3, human α7 nAChR (Homo sapiens, UniProt P36544).
T3 construct: expressed in transfected cells; host or cells: Xenopus laevis oocytes, injection of 30 ng mRNA (pCDNA3.1, T7 transcript)
Briefly: Two-electrode voltage-clamp recordings, Xenopus laevis oocytes expressing human α7 nAChR. The class given is cell-based. The note with it: for inward currents: tested up to 100 µM range.

The subject of data set [5] is human α3β2 nAChRs. Also on record: method as in Chavez-Noriega et al. [2000]. The conditions noted are these: ref Chavez-Noriega et al. [2000]; cited from earlier work.
For data set [6], the system named is nAChRs on SH-SY5Y cells. Briefly: Inhibition of DN-IMI-evoked [Ca2+]i response of SH-SY5Y cells by mecamylamine. The class given is cell-based, human. The conditions noted are these: Mec 125 µM, presence of PNU (10 µM).
The subject of data set [7] is nAChRs on LUHMES neurons. Briefly: Inhibition of DN-IMI-evoked [Ca2+]i responses of LUHMES neurons by nAChR antagonists. The class given is cell-based, human. The conditions noted are these: for pIC50 for inhibition of DN-IMI-induced [Ca2+]i response: antagonist pretreatment, DN-IMI 0.5 µM. On the procedure:
(§1) Ca^2+-imaging was performed using HT Functional Drug Screening System FDSS/µCELL (Hamamatsu Photonics) at nominal 37 °C. The FDSS/µCell system enables the indirect recording of changes of [Ca^2+]i via a Ca^2+-sensitive fluorescent dye. The fluorescence signal of a complete 384-well plate is acquired at once with a high-speed and high-sensitivity digital ImagEM X2 EM-CCD camera (Electron Multiplying Charge-Coupled Device, Hamamatsu Photonics), but with limited spatial resolution. Therefore, the software only determines the mean fluorescence signal of each well rather than of individual cells. For compound application, the integrated dispenser head with 384 pipette tips was used, which can add the test compound to all wells simultaneously. Cells were preincubated with Cal-520 AM (AAT Bioquest) at a concentration of 1 µM for 1 h at 37 °C. For recording, the medium was exchanged by a buffer solution containing [mM]: 135 NaCl, 5 KCl, 0.2 MgCl2, 2.5 CaCl2, 10 HEPES, and 10 D-glucose, pH 7.4. Test compound application was executed after obtaining a 1.5 min baseline recording. Where applicable, a second application was executed 4.5 min after the first application. The total recording never exceeded 8 min.
(§2) For the high-throughput Ca^2+-imaging data obtained in LUHMES cells, an offset correction using the FDSS software (version 3.2) was performed. Afterward, the data were exported and further analyzed with scripts written in R (version 3.6.3) (R Core Team [2020]). The concentration–response curves were fitted using a log-logistic model described by Ritz et al. ([2015]), utilizing the R package drc with its function drm() and LL2.2() with the following equation: f(x) = d/[1 + exp(b(log(x) − ẽ))] (Ritz et al. [2015]). The logarithm of the half-maximal effective concentration (logEC50) between 0 and the upper limit (d), which was set to 1, is represented by ẽ, x denotes the concentration, and b stands for the slope parameter (Ritz et al. [2015]). In cases with normalizations to responses induced by other compounds, the function LL2.3() was used with a variable upper limit (d; Ritz et al. [2015]). The same equation was used to determine the half-maximal inhibitory concentration (logIC50). Then the logEC50 and logIC50 values were converted into the pIC50 and pEC50 values, which are the negative logarithms to base 10.
LUHMES neurons differentiated in 384-well plates were pretreated with various concentrations of nAChR antagonists before DN-IMI (0.5 µM) was applied in Ca^2+-imaging experiments. […] Note the treatment scheme (upper right corner), illustrating the experimental design. […] Detailed data on n numbers are found in Table S6

Data set [8] is described as follows: in vitro. The note with it: human, hepatocytes. An excerpt:
Renal clearance for DN-IMI was assumed to be governed only by passive processes, with both filtration and passive reabsorption being accounted for. Passive permeability was scaled from the predicted permeability in the intestine (Peff 0.37 10-4 cm/s) accounting for the surface area of the proximal tubules in the kidney.

In data set [9] the test system is mice. The conditions noted are these: ref Chao and Casida [1997], cited from earlier work.
In data set [10] the target is T4, human α4β4 nAChR (Homo sapiens, UniProt P30926+P43681).
T4 construct: expressed in transfected cells; host or cells: Xenopus laevis oocytes, mRNA injection, 3.33 ng α4 and 3.33 ng β4
T4 sequence (P43681 27-627): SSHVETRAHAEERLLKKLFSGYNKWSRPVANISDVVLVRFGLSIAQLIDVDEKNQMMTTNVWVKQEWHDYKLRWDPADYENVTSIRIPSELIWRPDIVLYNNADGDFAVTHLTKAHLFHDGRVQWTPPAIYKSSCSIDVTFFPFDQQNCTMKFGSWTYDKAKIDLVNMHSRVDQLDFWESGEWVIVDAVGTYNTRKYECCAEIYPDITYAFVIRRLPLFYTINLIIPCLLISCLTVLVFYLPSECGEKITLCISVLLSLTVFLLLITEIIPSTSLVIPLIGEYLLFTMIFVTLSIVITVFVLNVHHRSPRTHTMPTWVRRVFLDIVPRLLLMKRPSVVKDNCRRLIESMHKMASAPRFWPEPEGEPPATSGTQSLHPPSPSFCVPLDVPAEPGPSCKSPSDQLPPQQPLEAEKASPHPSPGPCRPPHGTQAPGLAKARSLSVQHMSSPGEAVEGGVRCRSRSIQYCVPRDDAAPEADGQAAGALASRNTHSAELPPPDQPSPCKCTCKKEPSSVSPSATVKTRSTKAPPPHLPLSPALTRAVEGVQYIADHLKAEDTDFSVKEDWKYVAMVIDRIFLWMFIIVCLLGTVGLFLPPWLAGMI
T4 sequence (P30926 22-498): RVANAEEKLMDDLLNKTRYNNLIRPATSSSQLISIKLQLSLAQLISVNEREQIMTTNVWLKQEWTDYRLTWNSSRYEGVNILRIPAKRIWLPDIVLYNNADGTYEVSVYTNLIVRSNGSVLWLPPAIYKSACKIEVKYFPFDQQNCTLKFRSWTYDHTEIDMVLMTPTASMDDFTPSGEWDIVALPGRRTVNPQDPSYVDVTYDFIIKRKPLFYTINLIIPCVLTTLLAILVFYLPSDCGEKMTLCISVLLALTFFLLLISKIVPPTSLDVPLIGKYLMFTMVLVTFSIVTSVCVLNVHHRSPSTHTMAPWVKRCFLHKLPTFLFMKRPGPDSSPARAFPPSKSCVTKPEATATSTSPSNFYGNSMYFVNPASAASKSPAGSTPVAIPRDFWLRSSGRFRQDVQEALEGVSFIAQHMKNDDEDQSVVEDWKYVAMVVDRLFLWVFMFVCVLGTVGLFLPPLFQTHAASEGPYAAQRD
Briefly: Two-electrode voltage-clamp recordings, Xenopus laevis oocytes expressing human α4β4 nAChR. The data set is classed as cell-based. The conditions noted are these: tested concentration range ≤ 100 µM. An excerpt:
(§3) The human α7 nAChR subunit was cloned in the pCDNA3.1 vector.
(§4) For the generation of the mRNA for injection, the plasmid DNAs of α3, α4, β2, and β4 were linearized with the NotI restriction endonuclease (New England Biolabs) and the plasmid DNA of α7 was linearized with the XbaI restriction endonuclease (New England Biolabs). The mRNAs of α3, α4, β2, and β4 were generated by in vitro transcription using the mMESSAGE mMACHINE SP6 Transcription Kit (Invitrogen). For the generation of α7 mRNA, the mMESSAGE mMACHINE T7 Transcription Kit (Invitrogen) was used. For the separation of the DNA and mRNA, a phenol–chloroform extraction (Chomczynski and Sacchi [2006]) was performed. The mRNA was then obtained by ethanol precipitation from the aqueous phase; for quantification, the BioPhotometer (Eppendorf) was used.
(§5) The recordings of human α7, α3β4, α4β2, and α4β4 nAChRs expressed in Xenopus laevis oocytes (EcoCyte Bioscience) were performed in two-electrode voltage-clamp mode using the Roboocyte2 system and the corresponding software (version 1.4.1; Multi Channel Systems MCS). Prior to the recordings, the oocytes were maintained at 19 °C in modified Barth’s solution containing [mM]: 88 NaCl, 1 KCl, 0.33 Ca(NO3)2, 0.82 MgSO4, 2.4 NaHCO3, 0.41 CaCl2, 5 Tris, 100 U/ml penicillin, 100 µg/ml streptomycin, pH 7.4.
(§6) To express human α7 nAChR, we injected 50 nl of mRNA solution (30 ng mRNA) per oocyte, using the Roboinject and the corresponding software (version 1.2.1; Multi Channel Systems MCS). […]
(§7) The baseline correction of voltage-clamp oocyte recordings was performed with the Roboocyte2 + software (version 1.4.3; Multi Channel Systems MCS, Germany). The maximal current influx and further analysis were executed in scripts written in R. In the antagonist experiments with oocytes, the maximal inward current was determined for the last response of each period (control, three antagonist concentrations, and washout).

For data set [11], the target named is T5, human α4β2 (LS) nAChR (Homo sapiens, UniProt P17787+P43681).
T5 construct: expressed in transfected cells; host or cells: Xenopus laevis oocytes, mRNA injection, 10 ng α4 and 1 ng β2
T5 sequence (P43681 27-627): as the sequence (P43681 27-627) above
T5 sequence (P17787 26-502): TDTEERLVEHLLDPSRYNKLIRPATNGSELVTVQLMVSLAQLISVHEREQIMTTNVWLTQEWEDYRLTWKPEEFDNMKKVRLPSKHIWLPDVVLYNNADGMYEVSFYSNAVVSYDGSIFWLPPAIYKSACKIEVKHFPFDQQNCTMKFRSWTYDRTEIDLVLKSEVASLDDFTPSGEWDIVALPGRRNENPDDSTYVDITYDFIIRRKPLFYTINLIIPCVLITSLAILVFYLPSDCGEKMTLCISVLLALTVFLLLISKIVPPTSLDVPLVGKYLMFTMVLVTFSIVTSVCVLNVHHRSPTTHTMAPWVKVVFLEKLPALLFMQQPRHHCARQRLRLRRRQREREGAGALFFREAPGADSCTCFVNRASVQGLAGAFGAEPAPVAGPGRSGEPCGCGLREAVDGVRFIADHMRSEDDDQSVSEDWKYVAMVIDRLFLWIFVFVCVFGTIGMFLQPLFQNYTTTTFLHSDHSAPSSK
Briefly: Two-electrode voltage-clamp recordings, Xenopus laevis oocytes expressing human α4β2 (LS) nAChR. The class given is cell-based. The conditions noted are these: tested concentration range ≤ 100 µM.
Source text: as §3, §4, §5, §6, §7

Data set [12] has as its system nAChRs on LUHMES neurons. Briefly: Desensitization of nAChR agonist-evoked [Ca2+]i responses of LUHMES neurons. The data set is classed as cell-based, human. The note with it: pretreatment […], 3 µM nicotine. The method, then: as §1, §2
Fig. 4 Desensitizing effects of DN-IMI and IMI-olefin on nAChRs. LUHMES neurons differentiated in 384-well plates were pretreated with various concentrations of DN-IMI or IMI-olefin for 4.5 min before different nAChR agonists were applied and [Ca^2+]i signals were recorded. […] Note the treatment scheme (upper right corner), illustrating the experimental design. […] Note the treatment scheme (upper right corner), illustrating the experimental design. Detailed data on n numbers are found in Table S6

Data set [13] deals with nAChRs on LUHMES neurons. Briefly: High-throughput Ca2+-imaging of LUHMES neurons (agonist effect). The data set is classed as cell-based, human. The method, then:
For Ca^2+-imaging, the cells were pre-differentiated for 48 h in cell culture flasks, detached and plated at a density of 20,000 cells and 30,000 cells per well on 0.1% PEI-coated 384-well and 96-well plates (Greiner Bio-One), respectively, for the Ca^2+-imaging. The cells were further differentiated for another 7 days. 50% of the medium was exchanged every 2–3 days.
as §1, §2

[14] abbreviates: from curve-fitted concentration–response data.

SMILES strings stand for the structures.

T3 sequence (P36544 23-502): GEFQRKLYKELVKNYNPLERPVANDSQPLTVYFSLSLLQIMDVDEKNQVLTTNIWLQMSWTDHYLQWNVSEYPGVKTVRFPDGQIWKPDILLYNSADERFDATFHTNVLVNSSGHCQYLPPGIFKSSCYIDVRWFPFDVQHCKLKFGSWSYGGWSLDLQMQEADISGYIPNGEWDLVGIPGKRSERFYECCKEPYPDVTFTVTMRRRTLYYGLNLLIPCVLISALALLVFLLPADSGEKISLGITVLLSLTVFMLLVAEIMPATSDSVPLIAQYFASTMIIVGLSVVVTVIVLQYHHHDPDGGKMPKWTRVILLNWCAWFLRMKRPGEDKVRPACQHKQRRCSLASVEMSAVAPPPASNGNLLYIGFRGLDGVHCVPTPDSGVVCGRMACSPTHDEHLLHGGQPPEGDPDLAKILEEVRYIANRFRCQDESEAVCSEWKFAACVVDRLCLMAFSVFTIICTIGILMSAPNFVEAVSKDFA
T1 sequence (P32297 32-505): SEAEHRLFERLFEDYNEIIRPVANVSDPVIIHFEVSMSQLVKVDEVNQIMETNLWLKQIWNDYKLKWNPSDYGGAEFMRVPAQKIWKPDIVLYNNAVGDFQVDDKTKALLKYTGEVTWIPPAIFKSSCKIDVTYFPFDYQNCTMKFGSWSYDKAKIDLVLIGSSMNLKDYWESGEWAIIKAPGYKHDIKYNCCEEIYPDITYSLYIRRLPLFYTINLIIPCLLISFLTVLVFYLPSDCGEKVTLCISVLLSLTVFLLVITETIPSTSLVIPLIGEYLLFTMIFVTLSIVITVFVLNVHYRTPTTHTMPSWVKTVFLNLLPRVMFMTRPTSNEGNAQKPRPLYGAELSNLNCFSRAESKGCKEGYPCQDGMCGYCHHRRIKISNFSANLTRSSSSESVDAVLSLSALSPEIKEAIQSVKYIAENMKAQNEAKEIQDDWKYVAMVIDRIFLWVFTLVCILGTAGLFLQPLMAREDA
T1 sequence (P30926 22-498): as the sequence (P30926 22-498) above
T2 sequence (P43681 27-627): as the sequence (P43681 27-627) above
T2 sequence (P17787 26-502): as the sequence (P17787 26-502) above

Turning to `CN1CCC[C@H]1c1cccnc1` [nicotine, (-)-Nicotine, reference compound], the “absolute EC25” value in data set [1] (setting [14]) was found to be 27.5 µM; in data set [3] (setting [14]), 0.17 µM; in data set [4] (setting [14]) it was 30.2 µM. Also, the estimated maximum in [1] (normalized to nicotine (1 mM)) and in data set [4] (normalized to nicotine (1 mM)) was ~ 1 in each case. For the same compound, the “pEC50 in LUHMES neurons” value in [2] is listed as ~ 6.0. Also, the “higher potency on α4β2 (HS) nAChR than on other subtypes” value in data set [3] (comparison of EC25 values, α4β2 (HS) vs α7 and α3β4) is recorded as > 2 log-step.
As for `CNC1(C)C2CCC(C2)C1(C)C` (stereo not shown) [Mec, Mecamylamine], the “pIC50, literature data for human α3β2 nAChRs” value in data set [5] is given as 6.6. In addition, in [6], the “block of DN-IMI-induced [Ca2+]i response in SH-SY5Y” value is given as “strongly blocked”. Further, the “pIC50 for inhibition of DN-IMI-induced [Ca2+]i response” value (“pIC50 for inhibition of DN-IMI-induced” below) in [7] was found to be 6.8 ± 0.03. The “block of DN-IMI-triggered inward current” value in [3] (DN-IMI 1 µM) was “concentration-dependently and reversibly blocked”.
In the case of `C[C@]12C=CC(=O)C=C1CC[C@@H]1[C@@H]2[C@@H](O)C[C@@]2(C)[C@H]1CC[C@]2(O)C(=O)CO` [prednisolone, reference compound], the hepatocyte CLint in data set [8] is 379 µL/min/1e6 cells.
Regarding `O=[N+]([O-])NC1=NCCN1Cc1ccc(Cl)nc1` [IMI, imidacloprid], the inward currents result is “small but significant inward currents” in data set [1] (concentration-dependent, up to 100 µM); “significant inward currents but with a lower potency and efficacy than DN-IMI” in data set [4]. For the same compound, the “activation of the receptor” value in data set [3] (tested concentration range ≤ 100 µM), in data set [10] and in [11] was “did not trigger a concentration-dependent activation” in each case. For the same compound, the median lethal dose (LD50) in data set [9] (Tomizawa et al. [2000], [2001]) is 35 to 50 mg/kg.
With `CCN1C[C@]2(COC(=O)c3ccccc3N3C(=O)C[C@H](C)C3=O)CC[C@H](OC)[C@@]34[C@@H]5C[C@H]6[C@H](OC)[C@@H]5[C@](O)(C[C@@H]6OC)[C@@](O)([C@@H](OC)[C@H]23)[C@@H]14` [MLA, Methyllycaconitine, reference compound], in [7], the “pIC50 for inhibition of DN-IMI-induced” value amounted to 6.8 ± 0.03. Further, in [4] (DN-IMI 30 µM), the “block of DN-IMI-triggered inward current” value was “concentration-dependently and reversibly blocked”.
For `O=[N+]([O-])Nc1nccn1Cc1ccc(Cl)nc1` [IMI-olefin, imidacloprid-olefin], the “pIC50 for desensitization of the nicotine-evoked response” value in [12] is 4.9. Further, in data set [13] (LUHMES neurons, absence of PNU, normalized to the maximal response stimulated by DN-IMI, tested ≤ 100 µM), the “pEC50 of [Ca2+]i response (peak amplitude)” value is “not reached within the measurement range”. The “pEC50 of [Ca2+]i response in the presence of PNU” value in [13] (PNU 10 µM, normalized to maximal response to IMI-olefin in presence of PNU) was 5.5. Moreover, the “response as % of the maximal response to DN-IMI” value in [13] (at 30–100 µM) is recorded as “around 15%”. In addition, the inward currents result in data set [4] was “significant inward currents but with a lower potency and efficacy than DN-IMI”. Also, the lethality result in data set [9] (highest tested dose of 50 mg/kg) is on record as “no lethality”.
As for `CC[N+](CC)(CC)CCOc1ccc(/C=C/c2ccccc2)cc1` [MG 624], the “pIC50 for inhibition of DN-IMI-induced” value in [7] was determined as 6.8 ± 0.03.
In the case of `COc1cc2c3cc1Oc1cc(ccc1O)C[C@@H]1c4c(cc(OC)c(O)c4Oc4ccc(cc4)C[C@@H]3N(C)CC2)CC[N+]1(C)C` [Tubo, (+)-Tubocurarine chloride pentahydrate], the “block of DN-IMI-triggered inward current” value in [1] (DN-IMI 30 µM) was “concentration-dependently and reversibly blocked”. In data set [7], the “pIC50 for inhibition of DN-IMI-induced” value was determined as 5.9. Moreover, the “block of DN-IMI-evoked response” value in data set [7] (at 100 µM) was “completely blocked”.
With `CC(=O)OCC[N+](C)(C)C` [ACh, Acetylcholine chloride], in data set [2], the “pEC50 in LUHMES neurons” value was ~ 6.0.

For orientation: hepatocyte CLint means the rate of metabolic loss divided by the concentration. Higher therefore signals rapid turnover. The term LD50 denotes the dose at which mortality reaches 50%.

(Values after article PMC8536575, “Acute effects of the imidacloprid metabolite desnitro-imidacloprid on human nACh receptors relevant for neuronal signaling” (Archives of Toxicology, 2021).)
